Test results published in article PMC10342533, “Novel Tetrazole Derivatives Targeting Tubulin Endowed with Antiproliferative Activity against Glioblastoma Cells” (International Journal of Molecular Sciences, 2023).
Converted amounts (≈) assume the structure as drawn.

How the values were obtained:
[1] = test system: HCT8 (colorectal carcinoma); assay: Cell growth inhibition, MTT assay, HCT8; type: cell-based; conditions: Homo sapiens
Experimental: (§1) The ability of the synthesized compounds to inhibit the cell proliferation of human cancer cell lines was assayed by measuring cell viability through the use of the MTT method 72 h after treatment. For this purpose, representative cell lines of the most frequent kinds of cancer were selected, including the following: HeLa (cervix epithelioid carcinoma), MCF7 (breast adenocarcinoma), U87 MG (glioblastoma), T98G (temozolomide resistant glioblastoma), HepG2 (hepatocellular carcinoma), HCT8 (colorectal carcinoma), and HT-29 (colon adenocarcinoma).
(§2) The cell lines were obtained from ATTC (Manassas, VA, USA). […] The cells were periodically tested for Mycoplasma infection by using a MycoAlert kit (Lonza, Norwest, Australia), and only Mycoplasma-free cells were used in the experiments.
(§3) Then, every compound was added (10 µL/well) to a final concentration of 10 µM. Untreated cells were used as negative controls. The antiproliferative activity of compounds was measured 72 h after drug exposure through the MTT assay. […] For this purpose, compounds were used at different concentrations, ranging from 10^−10 to 10^−2 M. Measurements were performed in triplicate, and each experiment was repeated three times. The IC50 values were determined using Origin software (version 9.6, OriginLab, Washington, DC, USA).

U87 MG (glioblastoma) = assay: Cell growth inhibition, MTT assay, U87 MG; type: cell-based; conditions: Homo sapiens, U-87 MG
Experimental: as §1, §2, §3

[2] = Aqueous solubility, shake-flask method, phosphate buffer pH 7.4; type: physicochemical; conditions: thermodynamic from solid, phosphate buffer pH 7.4, shake-flask, mean ± SD of three experiments
Experimental: The aqueous solubility of tetrazole derivatives was determined by the shaking flask methodology in phosphate buffer at pH 7.4, microfiltration, and quantification of the saturated solutions via UV spectroscopy. […] The introduction of polar groups on the 3-indole position was favorable since the most soluble compounds were the oximes 16–19 (38–53 µg/mL), followed by the carbaldehyde series 12–15 (33–45 µg/mL), and the carbonitrile derivatives (25–40 µg/mL), whereas the unsubstituted indoles 8–11 were the least soluble series (19–35 µg/mL).
The aqueous solubility of the compounds was determined using the saturation shake-flask method. First, calibration lines at the maximum wavelength of absorbance were determined for each compound. Then, 5 mg of each compound was suspended in 500 µL of pH 7.4 buffer, and the resulting mixture was shaken for 72 h at room temperature and filtrated over a […] filter to remove the insoluble fraction. The concentration of the compound in the supernatant (saturated solution) was determined by measuring UV absorbance at the maximum wavelength of absorbance and interpolation in the calibration line. A Helios Alfa Spectrophotometer was used for the UV measurements. The aqueous solubility values are given as the average of three independent experiments.

[3] = test system: MCF7 (breast adenocarcinoma); assay: Cell growth inhibition, MTT assay, MCF7; type: cell-based; conditions: Homo sapiens
Experimental: as §1, §2, §3

[4] = test system: HeLa (cervix epithelioid carcinoma); assay: Cell growth inhibition, MTT assay, HeLa; type: cell-based; conditions: Homo sapiens
Experimental: as §1, §2, §3

[5] = test system: HEK-293 (embryonic kidney); assay: Cell growth inhibition, MTT assay, non-tumor HEK-293; type: cell-based; conditions: Homo sapiens
Experimental: The ability of the synthesized compounds to inhibit the cell proliferation of human cancer cell lines was assayed by measuring cell viability through the use of the MTT method 72 h after treatment. For this purpose, representative cell lines of the most frequent kinds of cancer were selected, including the following: HeLa (cervix epithelioid carcinoma), MCF7 (breast adenocarcinoma), U87 MG (glioblastoma), T98G (temozolomide resistant glioblastoma), HepG2 (hepatocellular carcinoma), HCT8 (colorectal carcinoma), and HT-29 (colon adenocarcinoma). […] The compounds were also tested against the non-tumor HEK-293 cells to study their selectivity toward cancer cells. […] The cell lines were obtained from ATTC (Manassas, VA, USA). […] The cells were periodically tested for Mycoplasma infection by using a MycoAlert kit (Lonza, Norwest, Australia), and only Mycoplasma-free cells were used in the experiments. […] Louis, MO, USA), which was dissolved in PBS at 5 mg/mL in accordance with the manufacturer's instructions. […] Untreated cells were used as negative controls. The antiproliferative activity of compounds was measured 72 h after drug exposure through the MTT assay. […] For this purpose, compounds were used at different concentrations, ranging from 10^-10 to 10^-2 M. Measurements were performed in triplicate, and each experiment was repeated three times. The IC50 values were determined using Origin software (version 9.6, OriginLab, Washington, DC, USA).

[6] = test system: HepG2 (hepatocellular carcinoma); assay: Cell growth inhibition, MTT assay, HepG2; type: cell-based; conditions: Homo sapiens
Experimental: as §1, §2, §3

[7] = test system: T98G (temozolomide resistant glioblastoma); assay: Cell growth inhibition, MTT assay, T98G; type: cell-based; conditions: Homo sapiens
Experimental: as §1, §2, §3

[8] = test system: HT-29 (colon adenocarcinoma); assay: Cell growth inhibition, MTT assay, HT-29, without or with verapamil; type: cell-based, human
Experimental: as §1
Multidrug resistance (MDR) proteins, especially P-glycoprotein (P-gp), are often involved in resistance mechanisms affecting tubulin-binding drugs that are frequently related to the failure of cancer therapies. […] These pumps are also part of the blood–brain barrier.
as §2, §3

[9] = target: T1, microtubular protein isolated from calf brains (bovine brain tubulin) (Bos taurus, UniProt P81947+Q6B856); assay: Tubulin polymerization inhibition (TPI); type: biochemical; conditions: in vitro tubulin polymerization, mean ± SD
T1 construct: from tissue; host or cells: calf (bovine) brain
T1 sequence (Q6B856 whole entry): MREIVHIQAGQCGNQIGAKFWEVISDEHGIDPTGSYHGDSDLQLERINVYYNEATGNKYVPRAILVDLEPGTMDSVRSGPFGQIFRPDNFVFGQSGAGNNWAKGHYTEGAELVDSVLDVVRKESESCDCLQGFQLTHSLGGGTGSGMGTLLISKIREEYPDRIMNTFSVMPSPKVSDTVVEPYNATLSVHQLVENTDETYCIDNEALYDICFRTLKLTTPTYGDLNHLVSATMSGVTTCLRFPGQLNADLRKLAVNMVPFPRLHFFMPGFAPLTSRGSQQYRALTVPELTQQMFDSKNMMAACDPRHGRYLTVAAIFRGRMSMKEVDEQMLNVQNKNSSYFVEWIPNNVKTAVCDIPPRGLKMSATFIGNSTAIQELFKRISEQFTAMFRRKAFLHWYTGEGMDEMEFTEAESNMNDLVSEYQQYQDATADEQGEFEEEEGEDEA
T1 sequence (P81947 whole entry): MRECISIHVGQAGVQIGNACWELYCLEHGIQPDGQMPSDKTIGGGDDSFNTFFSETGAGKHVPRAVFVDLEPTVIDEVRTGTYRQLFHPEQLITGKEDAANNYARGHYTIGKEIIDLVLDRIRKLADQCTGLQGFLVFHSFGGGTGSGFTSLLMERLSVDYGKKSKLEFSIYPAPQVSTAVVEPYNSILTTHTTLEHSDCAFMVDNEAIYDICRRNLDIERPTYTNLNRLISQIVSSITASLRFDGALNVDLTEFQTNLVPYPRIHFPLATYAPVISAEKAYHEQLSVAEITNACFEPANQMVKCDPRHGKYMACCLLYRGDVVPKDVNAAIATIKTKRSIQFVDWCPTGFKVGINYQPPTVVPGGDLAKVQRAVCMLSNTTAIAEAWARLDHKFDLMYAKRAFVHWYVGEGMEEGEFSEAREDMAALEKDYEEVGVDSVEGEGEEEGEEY
Experimental: We evaluated the capacity of the new synthesized compounds to inhibit the polymerization of microtubular protein isolated from calf brains. The assays were performed by taking absorbance measurements to quantify the amount of polymer mass formed in the presence (or absence; negative controls) of the compounds.
Bovine brain tubulin was isolated as previously described by following a modified version of the Shelanski method. The protein was stored at −80 °C, and its concentration was determined by employing the Bradford method before each use. […] Tubulin polymerization, caused when heating the samples, was accompanied by an increase in the absorbance (at 450 nm) of the sample that was monitored by using a Helios α spectrophotometer. […] Measurements were performed in triplicate in two independent experiments using microtubular proteins from different preparations.

[10] = HCT-8, 72 h after drug exposure
[11] = HEK293, 72 h, non-tumorigenic cell line
[12] = Homo sapiens, HT-29, 72 h after drug exposure
[13] = Homo sapiens, HT-29, mean ± SD, Table S1
[14] = mean ± SD, Table S1, in the presence of verapamil (10 µM)
[15] = HEK293, heading: IC50 HEK-293, mean ± SD, Table S1, non-tumorigenic cell line

IC50 [1, 10] [nM]	IC50 ([1]; HCT-8, mean ± SD, Table S1) [nM]	IC50 (U87 MG (glioblastoma); 72 h after drug exposure) [nM]	IC50 (U87 MG (glioblastoma); mean ± SD, Table S1) [nM]	melting point [°C]	solubility at 72 h [2] [µg/mL]	IC50 ([3]; 72 h after drug exposure) [nM]	IC50 ([3]; mean ± SD, Table S1) [nM]	IC50 ([4]; 72 h after drug exposure) [nM]	IC50 ([4]; mean ± SD, Table S1) [nM]	IC50 ([6]; 72 h after drug exposure) [nM]	IC50 ([6]; mean ± SD, Table S1) [nM]	IC50 ([7]; 72 h, 72 h after drug exposure) [nM]	IC50 ([7]; mean ± SD, Table S1) [nM]	IC50 [8, 12] [nM]	IC50 [8, 13] [nM]	IC50 [8, 14] [nM]	IC50 [9] [nM]	SMILES	IC50 [5, 11] [nM]	IC50 [5, 15] [nM]
50	50.1 ± 0.4	55	55.4 ± 0.4	214 to 215	45.3 ± 0.4 (≈ 123 µM)	65	65.4 ± 0.5	57	57.5 ± 0.3	55	55.3 ± 0.2	54	54.1 ± 0.3	64	64.2 ± 0.4	67.3 ± 0.6	2800 ± 200	COc1cc(-c2nnnn2-c2ccc3c(c2)c(C=O)cn3C)cc(Cl)n1 [Compound 13, 5-(5-(2-chloro-6-methoxypyridin-4-yl)-1H-tetrazol-1-yl)-1-methyl-1H-indole-3-carbaldehyde]	3720	
141	141.3 ± 1	115	115 ± 1.4	207 to 208	41.2 ± 0.4 (≈ 104 µM)	130	130.1 ± 1.1	144	144 ± 1.7	137	137 ± 1.5	122	122.5 ± 1.2	244	244.1 ± 1.8	242 ± 2.5	3500 ± 200	CSc1cc(-c2nnnn2-c2ccc3c(c2)c(C=O)cn3C)cc(SC)n1 [Compound 15, 5-(5-(2,6-bis(methylsulfanyl)pyridin-4-yl)-1H-tetrazol-1-yl)-1-methyl-1H-indole-3-carbaldehyde]	6480	
705	705.4 ± 4.9	634			39.7 ± 0.4 (≈ 109 µM)	701	701.5 ± 5.2	722	722.1 ± 5	740	740.3 ± 6.4	689	689 ± 7.5	749	749.5 ± 5.1	756.2 ± 5.6	6900 ± 300	COc1cc(-c2nnnn2-c2ccc3c(c2)c(C#N)cn3C)cc(Cl)n1 [Compound 21, 5-(5-(2-chloro-6-methoxypyridin-4-yl)-1H-tetrazol-1-yl)-1-methyl-1H-indole-3-carbonitrile]	> 10000	> 10000
236		209	209.3 ± 1.9	160 to 161	30.7 ± 0.3 (≈ 83.3 µM)	240	240.2 ± 2	233	233.1 ± 1.4	227	227 ± 2.5	219	219 ± 2.2	255	255 ± 2.6	257 ± 3	3800 ± 100	CSc1cc(-c2nnnn2-c2ccc3c(ccn3C)c2)cc(SC)n1 [Compound 11, 5-(5-(2,6-bis(methylsulfanyl)pyridin-4-yl)-1H-tetrazol-1-yl)-1-methyl-1H-indole]	6820	
219	219.1 ± 1.5	131	131.3 ± 1.1		38.2 ± 0.4 (≈ 98.4 µM)	210	210.1 ± 1.9	207	207.1 ± 2	220	220 ± 2.3	127	127.3 ± 0.9	211	211.1 ± 2		3700 ± 200	Cn1cc(C=NO)c2cc(-n3nnnc3-c3cc(Cl)nc(Cl)c3)ccc21 [Compound 16, 5-(5-(2,6-dichloropyridin-4-yl)-1H-tetrazol-1-yl)-1-methyl-1H-indole-3-carbaldehyde oxime]	7010	
335	335.3 ± 3.3	312	312.3 ± 2.6		31.2 ± 0.3 (≈ 81.7 µM)	329		341	341.2 ± 2.8	327	327.3 ± 2.8	359	359 ± 3.9	355	355 ± 3.9	357 ± 3.9	4600 ± 200	CSc1cc(-c2nnnn2-c2ccc3c(c2)c(C#N)cn3C)cc(Cl)n1 [Compound 22, 5-(5-(2-chloro-6-(methylsulfanyl)pyridin-4-yl)-1H-tetrazol-1-yl)-1-methyl-1H-indole-3-carbonitrile]	> 10000	> 10000
49	49.4 ± 0.3	32	32.4 ± 0.2		19.3 ± 0.1 (≈ 55.9 µM)	43	43.2 ± 0.4	45	45.1 ± 0.3	49	49.1 ± 0.5	41			52.3 ± 0.4	52.4 ± 0.2	2800 ± 100	Cn1ccc2cc(-n3nnnc3-c3cc(Cl)nc(Cl)c3)ccc21 [Compound 8, 5-(5-(2,6-dichloropyridin-4-yl)-1H-tetrazol-1-yl)-1-methyl-1H-indole]	4720	
